Data on 27 molecules can be found in ChEMBL document CHEMBL1201862, “PubChem BioAssay data set” (2004).

Structures are written as SMILES. Calls of active or inactive are those of the source. Cut-off read from the data, not from the text of the source, for most assays here: actives have a measured EC50 and inactives only a lower limit. Where only a bound is given, the exact number is not on record here.

Usually AC50 stands for the midpoint of the concentration-response curve, whichever way the signal moves. In general, EC50 refers to the concentration giving half of the maximal effect.

A short description of assay [1]: Shn3 3'UTR reporter inhibitors, dose response, cell-based, Clone20 osteoblasts, firefly luciferase, cherry-picked (AID 624132).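 Note: firefly luciferase luminescence from reporter carrying the Shn3 3'UTR in osteoblasts.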 In kind it is functional.
Assay [2] is described as follows: control 3'UTR Renilla luciferase suppression, dose response, counter-screen for Shn3 inhibitor project, cell-based, Clone20-Shn3RL, cherry-picked (AID 624133). In kind it is functional. A general note: The purpose of a counterscreen is to sort out artefacts and off-target activity.
In assay [3] the target is T1, Heat shock factor protein 1 (Mus musculus, UniProt P38532).
T1 sequence (P38532 whole entry): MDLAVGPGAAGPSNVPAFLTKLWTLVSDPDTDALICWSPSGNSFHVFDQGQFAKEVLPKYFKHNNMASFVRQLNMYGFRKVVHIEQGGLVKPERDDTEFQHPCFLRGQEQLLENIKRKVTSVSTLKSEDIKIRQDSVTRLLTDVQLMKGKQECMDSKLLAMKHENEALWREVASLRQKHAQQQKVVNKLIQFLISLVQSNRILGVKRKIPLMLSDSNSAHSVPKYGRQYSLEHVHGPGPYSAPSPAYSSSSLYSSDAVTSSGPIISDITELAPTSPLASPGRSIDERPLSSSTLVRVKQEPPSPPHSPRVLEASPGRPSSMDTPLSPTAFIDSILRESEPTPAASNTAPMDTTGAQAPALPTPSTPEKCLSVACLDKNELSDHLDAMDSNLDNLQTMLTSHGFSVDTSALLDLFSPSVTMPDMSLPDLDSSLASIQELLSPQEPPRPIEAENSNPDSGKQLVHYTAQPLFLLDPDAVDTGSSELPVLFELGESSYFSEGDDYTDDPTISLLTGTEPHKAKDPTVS
Put plainly: inhibition of MG132-induced HSE-luciferase signal, confirmation, cell-based, NIH3T3, luminescence, dose retest (AID 2382).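 Note: NIH3T3 fibroblasts with HSF1-driven luciferase reporter stressed by proteasome inhibitor MG132; luminescence from HSF1-driven luciferase expression after 8 hours of MG132 stress.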 In kind it is functional.

Assay [4] has as its system Streptococcus sp. 'group A'. Put plainly: growth inhibition of control SK(-) GAS strain, dose response, counter-screen for streptokinase expression inhibitor project, luminescence, kanamycin, BacTiterGlo, confirmation (AID 1900). In kind it is functional, organism-based.
The target in another assay is T2, Streptokinase A (Streptococcus pyogenes serotype M1, UniProt P10520).
T2 sequence (P10520 whole entry): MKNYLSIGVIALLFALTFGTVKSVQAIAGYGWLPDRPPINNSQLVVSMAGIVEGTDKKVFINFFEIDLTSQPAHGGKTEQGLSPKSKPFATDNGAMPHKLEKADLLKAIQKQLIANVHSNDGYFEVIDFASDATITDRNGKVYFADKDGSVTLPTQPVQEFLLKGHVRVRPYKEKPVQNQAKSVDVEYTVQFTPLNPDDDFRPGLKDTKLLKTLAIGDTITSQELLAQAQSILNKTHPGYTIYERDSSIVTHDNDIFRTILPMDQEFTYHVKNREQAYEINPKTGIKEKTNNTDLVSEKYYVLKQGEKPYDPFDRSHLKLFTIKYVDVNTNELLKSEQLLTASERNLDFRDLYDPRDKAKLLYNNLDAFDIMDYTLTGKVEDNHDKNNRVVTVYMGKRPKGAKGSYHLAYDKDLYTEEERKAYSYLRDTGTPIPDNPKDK
The experiment in a line: S. pyogenes streptokinase expression inhibitors, potency, dose response, plasminogen activation absorbance, OD405 (AID 1914).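 Note: secreted streptokinase activity via plasminogen activation per viability signal from cell pellet.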 In kind it is functional, Streptococcus pyogenes M1 GAS.

For a further assay, the system named is Streptococcus. Put plainly: Group A Streptococcus viability loss, dose response, counter-screen for streptokinase expression inhibitor project, luminescence, BacTiterGlo (AID 1915).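 Note: potency for reduction of bacterial viability or growth.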 Format: functional, organism-based.

`CC(=O)N1c2ccc(S(=O)(=O)N3CCC(C(=O)N4CCN(c5ccccc5F)CC4)CC3)cc2CC1C` (centres undefined): the half-maximal activity concentration (AC50) in assay [1] was 5.41 µM (active); in assay [2] it was 2.42 µM (active).
On to `CCc1ccccc1N(CC(=O)N1CCCC1)S(C)(=O)=O`, for which, in assay [3], the EC50 is > 195 µM (not active).
Still for that read-out and setting: the value for `NC(=O)C1CCCN(C(=O)c2ccc3oc(Cc4ccc(Cl)cc4)nc3c2)C1` (centres undefined) was > 195 µM (not active).
On to `COc1ccc(C)cc1NC(=O)NC1CCCc2ccccc21` (centres undefined), for which the EC50 (in assay [4]; at Streptokinase A; in the assay on Streptococcus) was > 150 µM (not active) each time.
For `Nc1nc2n(c1C(=O)c1ccccc1)CCC2`, the EC50 in assay [3] is 78 µM (active).
On to `Cc1cccc(CCNC(=O)CC2C(=O)NCCN2Cc2ccccc2C)n1` (centres undefined), for which the EC50 (in assay [4]; at Streptokinase A; in the assay with Streptococcus) was > 150 µM (not active) throughout.
For `COc1cccc(C(=O)Nc2ccc(NC(=O)C3CC=CCC3C(=O)O)cc2)c1` (centres undefined), the EC50 in assay [3] was > 195 µM (not active).
On to `COc1ccccc1C(=O)NC(=S)Nc1ccc(NC(=O)c2ccco2)cc1`, for which the EC50 is > 150 µM (not active) on Streptokinase A and 114 µM (inconclusive) in the assay on Streptococcus.
The corresponding values for `O=S(=O)(c1ccccc1)N1CCN=C1SCc1c(F)cccc1Cl` are 18.4 µM (active) and > 150 µM (not active).
For `CCOC(=O)Cc1csc(SCC(=O)c2c(N)n(CC(C)C)c(=O)n(C)c2=O)n1`, the AC50 in assay [1] was 2.35 µM (active); in assay [2], 8.62 µM (active).
Consider `O=C(CC(Nc1ccc(Cl)cc1Cl)C(=O)O)c1ccccc1` (centres undefined), for which the EC50 in assay [3] is < 0.16 µM (active).
As for `COc1ccc(C2=NN(S(C)(=O)=O)C(c3cccs3)C2)cc1OC` (centres undefined), in assay [3], the 50% effective concentration (EC50) was > 195 µM (not active).
Turning to `CC(=O)c1ccc(NC(=O)C2CCN(S(=O)(=O)c3cccc4cccnc34)CC2)cc1`, the EC50 in assay [3] is given as > 195 µM (not active).
The same measure, in the same setting: the figure for `O=C(Nc1ccccc1N1CCCC1)c1cccnc1Cl` is > 195 µM (not active).
The same measure, in the same setting: the value for `C(#Cc1ccccc1)CN1CCN(c2ccccn2)CC1` was > 195 µM (not active); that for `COc1cc(C(=O)N2CCSCC2)ccc1OC1CCN(C(C)=O)CC1` was > 195 µM (not active); that for `COC(=O)c1ccccc1NC(=O)CSc1nnc(C(CO)NC(=O)c2ccccc2)n1C` (centres undefined) was > 195 µM (not active).
Take `Cc1ccc(OP(=O)(Nc2cccc(C)c2)Oc2ccc(C)cc2)cc1`: the results for the EC50 (in assay [4]; on Streptokinase A; in the assay on Streptococcus) were 13 µM (active), 5.1 µM (active) and 28.9 µM (active), respectively.
As to `CCc1ccc(NC(=O)C2C3CCC(O3)C2C(=O)O)cc1` (centres undefined), the concentration giving a half-maximal response (EC50) in assay [3] was 67 µM (active).
Same read-out and setting: the value for `CCN(c1ccccc1)S(=O)(=O)c1ccc(Cl)c(NC(=O)CSc2nnc(C)s2)c1` was > 195 µM (not active); that for `O=C(CCNS(=O)(=O)c1cccc2nsnc12)NCc1cccs1` was > 195 µM (not active).
As to `CC1(C)NC(=O)N(CC(O)CN(c2ccccc2)S(=O)(=O)c2ccc([N+](=O)[O-])cc2)C1=O` (centres undefined), the EC50 in assay [3] is listed as > 195 µM (not active).
On the same count and under the same terms, the figure for `CCn1c(C(C#N)/C(=N\S(=O)(=O)c2cccs2)c2ccccc2)nc2ccccc21` (centres undefined) is > 195 µM (not active); for `C/C(CC(=O)Nc1ccccc1C(F)(F)F)=N\NC(=O)c1cnccn1` it is > 195 µM (not active).
As to `COc1ccc(CN2C(=O)c3ccccc3C(/C=N/OCc3ccc(Cl)cc3)C2=O)cc1` (centres undefined), the EC50 in assay [4] is 1.44 µM (active); on Streptokinase A it was > 150 µM (not active); in the assay on Streptococcus, 8.28 µM (active).
Consider `COc1ccc(OC)c(/N=C2\SCCCN2C(=O)c2ccc(N3C(=O)CCC3=O)cc2)c1`, for which the EC50 in assay [3] is recorded as > 195 µM (not active).
Same read-out and setting: the figure for `C/C(=N\O)C1CCCCC1` is > 195 µM (not active).
